Laboratory results reported in US9364405B2, “Tyrosinase inhibitors” (Avon Products, Inc., priority 2013, dated 2016).

System: Mushroom tyrosinase
Assay: Mushroom tyrosinase assay
Format: biochemical
Settings: L-Tyrosine substrate, 25° C., 30 min
Experimental: Mushroom tyrosinase and L-Tyrosine were obtained from Sigma-Aldrich, Inc. (St. Louis, Mo.). The enzyme activity was measured in buffer containing 100 mM phosphate buffer pH 6.8, 5% absolute ethanol, 2 micrograms/milliliter mushroom tyrosinase, and 0.2 mg/ml L-Tyrosine. The reaction (conversion of L-Tyrosine to DOPAchrome) was conducted in triplicates at 25° C. for 30 min, and absorbance was then measured at 492 nm. Kojic Acid was used as a positive control inhibitor in these assays. Percent change in tyrosinase activity relative to vehicle control was calculated.

[1] = test compound concentration 0.0010%

Structure (SMILES)	Tyrosinase Inhibition (percent change in tyrosinase activity compared to DMSO vehicle control) [1]	Tyrosinase Inhibition (percent change in tyrosinase activity compared to DMSO vehicle control) (test compound concentration 0.0100%)
CN1CCN(c2nc(-c3ccc(O)cc3O)cs2)CC1 [AV5370]	−75%	−59%
Cc1cc(C)cc(Nc2nc(-c3ccc(O)cc3O)cs2)c1 [AV4662]	−46%	–
